Source: patent US8337871B2, “Insecticide formulation” (Endura S.p.A., priority 2003, dated 2012)

Assays:
[1] = system: cotton aphid strain (Aphis Gossypii); assay: Mortality assay on cotton aphid (example 19); conditions: for No. insects alive/no. total insects after 24 hours: in Agral 90, 24 hours
Method: In a mortality assay conducted as reported in the literature [Gunning R. V. et al., J. Econ. Entomol.
A mortality assay was performed as reported in example 4 on a cotton aphid strain (Aphis Gossypii) using the formulation described in example 10, dissolved in 10 ml Agral 90. Data obtained with fenvalerate dissolved in 10 ml Agral 90, and with placebo (10 ml Agral 90) are shown as a reference. In all tests, concentration values are referred to the amount of active principle.

[2] = system: Bemisia Tabaci strain (B-Biotype) (Silver leaf whitefly); assay: Mortality assay on Bemisia Tabaci (example 18); assay type: in vivo; conditions: in Agral 90, 48 hours
Method: (B-Biotype) (Silver leaf whitefly) using the formulation described in example 16, dissolved in 10 ml Agral 90.

[3] = system: Heicoverpa Armigera strain (Cotton Bollworm); assay: Mortality assay on Cotton Bollworm (example 20); assay type: in vivo; conditions: in Agral 90, 24 hours
Method: Data obtained with αcypermethrin dissolved in 10 ml Agral 90, and with a mixture of αcypermethrin/PBO dissolved in 10 ml of Agral 90 (the PBO content being 0.2% with respect to αcypermethrin) are shown as a reference.

[4] = concentration 0.01 % w/v active principle
[5] = concentration 0.1 % w/v active principle
[6] = concentration 0.0005 % w/v active principle
[7] = concentration 0.001 % w/v active principle

Work on `CC(C)C(C(=O)OC(C#N)c1cccc(Oc2ccccc2)c1)c1ccc(Cl)cc1` (centres unmarked) [fenvalerate] yielded a mortality at 0.002 % strength ([1]; Aphis gossypii, 24 h) of 0%, a mortality at 0.02 % strength ([1]; Aphis gossypii, 24 h) of 20% and a mortality at 0.2 % strength ([1]; Aphis gossypii, 24 h) of 40%. For the same molecule, the “No. insects alive/no. total insects after 24 hours” value ([1]; concentration 0.002 % w/v active principle) was 10/10, the “No. insects alive/no. total insects after 24 hours” value ([1]; concentration 0.02 % w/v active principle) was 8/10 and the “No. insects alive/no. total insects after 24 hours” value ([1]; concentration 0.2 % w/v active principle) was 6/10.

`CC1(C)C(C=C(Cl)Cl)C1C(=O)OC(C#N)c1cccc(Oc2ccccc2)c1` (centres unmarked) [αcypermethrin] was tested, and the Mortality % [2, 4] was 19%, the “No. insects alive/no. total insects after 48 hours” value [2, 4] was 22/27 and the Mortality % [2, 5] was 67%. For the same molecule, the “No. insects alive/no. total insects after 48 hours” value [2, 5] was 4/12, the Mortality % [3, 6] was 40% and the “No. insects alive/no. total insects after 24 hours” value [3, 6] was 6/10. The Mortality % [3, 7] was 60% and the “No. insects alive/no. total insects after 24 hours” value [3, 7] was 4/10.
